Patent US11413278B2, “Compounds and methods for promoting stress resistance” (priority 2015, dated 2022)
Read-outs that look alike come from different tables or passages of the source.

Legend:
[1] = test system: WI-38 cells; assay: Long-term effects on cell viability (5 days, ATP; morphology, PI imaging); assay type: cell-based; conditions: 10 μM; for Luminescence signal for ATP measurement, day-1 Average / Luminescence signal for ATP measurement, day-2 Average / Luminescence signal for ATP measurement, day-3 Average / Luminescence signal for ATP measurement, day-4 Average / Luminescence signal for ATP measurement, day-5 Average / viability at 10 µM: Batch 1; for Luminescence signal for ATP measurement, day-1 Average / Luminescence signal for ATP measurement, day-2 Average / Luminescence signal for ATP measurement, day-3 Average / Luminescence signal for ATP measurement, day-4 Average / Luminescence signal for ATP measurement, day-5 Average: n = 6, day-0 luminescence = 320956 ± 24708; for viability at 10 µM: Homo sapiens, WI-38, 120 h, DMSO ctrl = 100.0%, read-out: ATP luminescence by day-5 normalized; for Luminescence signal for ATP measurement, day-5 Average / viability at 10 µM: day-5; for O = Potential toxicity / Q = Potential toxicity: human, 5 days;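 as to Luminescence signal for ATP measurement, day-2 Average: compounds at 10 µM with ATP read daily over 5 days of treatment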;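 as to Luminescence signal for ATP measurement, day-3 Average: compounds at 10 µM with ATP read daily over 5 days of treatment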;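 as to Luminescence signal for ATP measurement, day-4 Average: compounds at 10 µM with ATP read daily over 5 days of treatment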;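 as to Luminescence signal for ATP measurement, day-5 Average: compounds at 10 µM with ATP read daily over 5 days of treatment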
[2] = test system: phosphorylated γH2A.X and TP53BP1; assay: DNA damage marker analysis (immuno-staining); conditions: for activity at 10 µM: Homo sapiens, WI-38, 24 h
Procedure, shortened: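 Immunofluorescence read-out for phospho-γH2A.X (Ser-139) and phospho-TP53BP1 (Ser-1778), with DAPI nuclear stain and automated imaging at 10×. WI-38 cells (~8,000 per well) were exposed to small molecules for 24 h after 24 h of culture, with doxorubicin (300 nM, 24 h) or H2O2 (700 μM, 3 h) as positive damage controls.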

[3] = test system: C. elegans; assay: C. elegans lifespan assays (liquid and plate); assay type: in vivo, Caenorhabditis elegans; conditions: for ILS at 60 µM / ILS at 66 µM: Caenorhabditis elegans; for O = Life span- extending scores in worms: score scale 0 to 2, 4 to 6 independent trials; for M = Lifespan-extending scores in worms: summary score
[4] = test system: FOXO3; assay: FOXO3 siRNA knockdown: dependency for H2O2-resistance; assay type: cell-based, human; conditions: for FOXO3-dependency for H2O2-resistance (experiment 3): with & without H2O2, FOXO3 knockdown in WI-38 cells
[5] = test system: WI-38 cells; conditions: for No H2O2 stress treatment, at 10 uM (fold change): normalized ATP measurement; for Assay 1: H2O2-resistant: YES/NO, if NO, possibly due to repeated freezing/thawing of stocks
[6] = read-out: Experiment 1, H2A.X-P DNA damage foci staining (no H2O2 stress treatment), at 10 uM
[7] = read-out: Experiment 2, H2A.X-P DNA damage foci staining (no H2O2 stress treatment), at 10 uM
[8] = read-out: Experiment 2, H2A.X-P DNA damage foci staining (under H2O2 stress treatment), at 10 uM
[9] = read-out: Experiment 2, TP53BP1-P DNA damage foci staining (no H2O2 stress treatment), at 10 uM
[10] = read-out: Experiment 2, TP53BP1-P DNA damage foci staining (under H2O2 stress treatment), at 10 uM
[11] = in liquid, wild type, with FuDR, 1.0 × 10^9 bacteria/ml, read-out: relative change of mean lifespan vs control, Trial 1
[12] = in liquid, wild type, with FuDR, 2.5 × 10^9 bacteria/ml, read-out: relative change of mean lifespan vs control, Trial 2
[13] = on plate, CF512 temperature-sensitive sterile animals, without FuDR, 2.0 × 10^10 bacteria/ml, read-out: relative change of mean lifespan vs control, Trial 3
[14] = Assay 2(z), 1.0 × 10^9 bacteria/ml, wild type + FuDR (2012 July), read-out: Lifespan assay in liquid
[15] = Assay 3(aa), 2.5 × 10^9 bacteria/ml, wild type + FuDR, read-out: Lifespan assay in liquid
[16] = Assay 4(ab), 2.0 × 10^10 bacteria/ml, CF512 worms, no FuDR, read-out: Lifespan assay on plates
[17] = WI-38 cells, 10 μM, (*) = compromised ability to protect cells from H2O2, could be due to stability issue
[18] = asterisks indicate the loss of the ability to protect cells from H2O2 over time
[19] = derived from dose response curves, 0.6-20 uM, H2O2-resistance of WI-38 cells
[20] = read-out: Est. ED50, dose response 0.6-20 μM, H2O2-resistance
[21] = 10 uM, YES = resistance reduced by at least 50%, partial = 25% to 50%

Row | Structure (SMILES) | Luminescence signal for ATP measurement, day-1 Average [1] | Luminescence signal for ATP measurement, day-2 Average [1] | Luminescence signal for ATP measurement, day-3 Average [1] | Luminescence signal for ATP measurement, day-4 Average [1] | Luminescence signal for ATP measurement, day-5 Average [1] | viability at 10 µM [1] [%] | O = Potential toxicity [1] | Q = Potential toxicity [1] | activity at 10 µM [2, 6] [%] | activity at 10 µM [2, 7] [%] | activity at 10 µM [2, 8] [%] | activity at 10 µM [2, 9] [%] | activity at 10 µM [2, 10] [%] | ILS at 60 µM [3, 11] [%] | ILS at 60 µM [3, 12] [%] | ILS at 60 µM [3, 13] [%] | ILS at 66 µM [3, 14] [%] | ILS at 66 µM [3, 15] [%] | ILS at 66 µM [3, 16] [%] | O = Life span- extending scores in worms [3] | also measured
1 | Oc1ncnc2sc3c(c12)CCC3 [O14] | 581665 | 685103 | 819423 | 1074238 | 1052551 | 102 | 0 | 0 | 116 | 85.3 | 221 | 159 | 254 | 13.7 | 5.8 | 11.3 | 13.7 | 5.8 | 11.3 | 2 (2 for observed in more than 2 trials) | P = Potential DNA-damaging ([2]; human, 24 h): 0; R = Potential DNA damaging ([2]; human, 24 h): 0; Lifespan extension of C. elegans ([3]; across independent trials): ≥ 10%; Extension of C. elegans' lifespan (qualitative) ([3]; in at least 3 to 4 trials, group range ~10% to ~50%): could extend animal's lifespan; Trials with lifespan extension ([3]; positive of total trials): 3 of 3; M = Lifespan-extending scores in worms [3]: 2 (2 for observed in more than 2 trials); I = FOXO3-dependency for H2O2-resistance ([4]; score): 0; I = FOXO3-dependency for H2O2-resistance ([4]; summary score): 0; H2O2-resistant [5, 17]: YES; No H2O2 stress treatment, at 10 uM (fold change) ([5]; WI-38 cells): 1.11 fold change; Assay 1: H2O2-resistant [5]: YES; H2O2-resistant [5, 18]: YES; EC50 [5, 19]: 12.5 µM; EC50 [5, 20]: 12.5 µM
2 | O=C(NCc1cccnc1)/C(=C/c1ccc(-c2ccc(Cl)cc2)o1)S(=O)(=O)c1ccccc1 [Gr-7C] | 378655 | 140712 | 84446 | 72490 | 127440 | 12.4 | 0 | 1 | 132 | 135 | 82.9 | 196 | 369 | -29.1 | 10.1 | -41.6 | -29.1 | 10.1 | -41.6 | 0 | P = Potential DNA-damaging ([2]; human, 24 h): 0; R = Potential DNA damaging ([2]; human, 24 h): 0; M = Lifespan-extending scores in worms [3]: 0; FOXO3-dependency for H2O2-resistance, at 10 uM - with H2O2, 1st experiment ([4]; 10 uM, experiment 1 (1st), with H2O2): 1st, YES;; FOXO3-dependency for H2O2-resistance, at 10 uM (experiment 3) - with & without H2O2 ([4]; 10 uM): Partial; FOXO3-dependency for H2O2-resistance (experiment 3) [4, 21]: Partial; FOXO3-dependency for H2O2-resistance, 1st experiment ([4]; 10 uM, with H2O2, FOXO3 knockdown in WI-38 cells, YES = resistance reduced by at least 50%, partial = 25% to 50%): YES;; Assay 16: FOXO3-dependency for H2O2-resistance ([4]; 10 uM, YES/NO): YES; Requirement of FOXO3 to promote H2O2-resistance ([4]; FOXO3 siRNA, at least 2 of 3 independent experiments): required FOXO3; I = FOXO3-dependency for H2O2-resistance ([4]; score): 1; I = FOXO3-dependency for H2O2-resistance ([4]; summary score): 1; H2O2-resistant [5, 17]: YES; No H2O2 stress treatment, at 10 uM (fold change) ([5]; WI-38 cells): 0.87 fold change; Assay 1: H2O2-resistant [5]: YES; H2O2-resistant [5, 18]: YES; EC50 [5, 19]: 14.2 µM; EC50 [5, 20]: 2.59 µM
3 | COc1ccc(C(=O)/C=C/c2ccc(F)cc2)c(OC)c1 [Gr-4A] | 501436 | 605711 | 772420 | 995321 | 1019996 | 99.3 | 0 | 0 | 80.2 | 75 | 105 | 155 | 287 | -21.4 | 1.2 | -0.1 | -21.4 | 1.2 | -0.1 | 0 | R = Potential DNA damaging ([2]; negative point, cultured human cells): 0; P = Potential DNA-damaging ([2]; summary score): 0; M = Lifespan-extending scores in worms [3]: 0; I = FOXO3-dependency for H2O2-resistance ([4]; score): 0; I = FOXO3-dependency for H2O2-resistance ([4]; summary score): 0; H2O2-resistant [5, 17]: YES; No H2O2 stress treatment, at 10 uM (fold change) ([5]; WI-38 cells): 1.08 fold change; Assay 1: H2O2-resistant [5]: YES; H2O2-resistant [5, 18]: YES; EC50 [5, 19]: 9.1 µM; EC50 [5, 20]: 4.97 µM
4 | Cc1cc(C)c(C(=O)/C=C/c2ccccc2F)c(O)n1 [O18] | 453443 | 639628 | 693776 | 825623 | 760275 | 74 | 0 | 0 | 364 | 143 | 137 | 183 | 450 | 22.1 | 11.8 | 3.8 | 22.1 | 11.8 | 3.8 | 1 (1 for lifespan extension observed in 2 trials) | P = Potential DNA-damaging ([2]; human, 24 h): 0; R = Potential DNA damaging ([2]; human, 24 h): 0; M = Lifespan-extending scores in worms [3]: 1 (1 for lifespan extension observed in 2 trials); FOXO3-dependency for H2O2-resistance, at 10 uM (experiment 3) - with & without H2O2 ([4]; 10 uM): YES; FOXO3-dependency for H2O2-resistance (experiment 3) [4, 21]: YES; I = FOXO3-dependency for H2O2-resistance ([4]; score): 0; I = FOXO3-dependency for H2O2-resistance ([4]; summary score): 0; H2O2-resistant [5, 17]: YES; No H2O2 stress treatment, at 10 uM (fold change) ([5]; WI-38 cells): 0.99 fold change; Assay 1: H2O2-resistant [5]: YES; H2O2-resistant [5, 18]: YES; EC50 [5, 19]: 9.8 µM; EC50 [5, 20]: 9.8 µM
